Laboratory results as given in ChEMBL document CHEMBL1127077, “Trisubstituted pyridine leukotriene B4 receptor antagonists: synthesis and structure-activity relationships” (J Med Chem, 1993).

Experiments:
[1] = target: Leukotriene B4 receptor 1 (Homo sapiens, UniProt Q15722); assay: Binding affinity of [3H]LTB4 to receptors on intact human polymorphonuclear leukocytes
U-937 = assay: Antagonistic activity to inhibit the calcium mobilization response in human U-937 cells; format: functional, cell-based

Leukotriene B4 receptor 1, sequence (Q15722 whole entry): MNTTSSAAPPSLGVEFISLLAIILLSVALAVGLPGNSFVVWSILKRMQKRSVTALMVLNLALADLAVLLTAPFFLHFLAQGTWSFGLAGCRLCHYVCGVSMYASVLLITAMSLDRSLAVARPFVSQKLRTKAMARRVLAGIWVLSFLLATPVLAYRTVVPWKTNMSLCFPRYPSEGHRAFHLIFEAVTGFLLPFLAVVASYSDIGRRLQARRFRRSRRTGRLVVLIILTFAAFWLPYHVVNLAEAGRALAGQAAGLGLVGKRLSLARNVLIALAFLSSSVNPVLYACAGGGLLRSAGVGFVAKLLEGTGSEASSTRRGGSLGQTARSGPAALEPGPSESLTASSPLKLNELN

Compound	Ki [1]	IC50 (U-937)
COc1ccc(CCCCCCCCOc2ccc(COc3cccc(C(=O)O)c3)[n+]([O-])c2/C=C/C(=O)O)cc1	150 nM	890 nM
COc1ccc(CCCCCCCCOc2ccc(C[S+]([O-])c3cccc(CS(=O)(=O)C(F)(F)F)c3)nc2/C=C/C(=O)O)cc1 (configuration not stated)	225 nM	550 nM
CCCCCCCCCCCCOc1ccc(C[S+]([O-])c2cccc(C(=O)O)c2)nc1/C=C/C(=O)O (configuration not stated)	129 nM	930 nM
CCCCCCCCCCCCOc1ccc(C[S+]([O-])c2ccc(C(=O)O)cc2)nc1/C=C/C(=O)O (configuration not stated)	252 nM	1300 nM
COc1ccc(CCCCCCCCOc2ccc(CSc3cccc(OC)c3)nc2/C=C/C(=O)O)cc1	192 nM	290 nM
Nc1cccc(SCc2ccc(OCCCCCCCCc3ccc(C(F)(F)F)cc3)c(/C=C/C(=O)O)n2)c1	43 nM	78 nM
CCCCCCCCCCCCOc1ccc(COc2cccc(C(=O)O)c2)nc1/C=C/C(=O)O	1130 nM	580 nM
COc1ccc(CCCCCCCCOc2ccc(CSc3cccc(N(C)C)c3)nc2/C=C/C(=O)O)cc1	789 nM	460 nM
CCCCCCCCC(O)/C=C/c1cccc(CC(O)c2cccc(C(=O)O)c2)n1 (configuration not stated)	1 nM	–
COc1ccc(CCCCCCCCOc2ccc(CSc3cccc(NS(=O)(=O)c4ccccc4)c3)nc2/C=C/C(=O)O)cc1	609 nM	240 nM
CCCCCCCCCCCCOc1ccc(COc2cccc(C(=O)O)c2)[n+]([O-])c1/C=C/C(=O)O	338 nM	1010 nM
COc1ccc(CCCCCCCCOc2ccc(CS(=O)(=O)c3cccc(N)c3)nc2/C=C/C(=O)O)cc1	36 nM	150 nM
COc1ccc(CCCCCCCCOc2ccc(CSc3cccc(C(=O)O)c3)nc2/C=C/C(=O)O)cc1	80 nM	390 nM
COc1ccc(CCCCCCOc2ccc(CC(O)c3cccc(C(=O)O)c3)nc2/C=C/C(=O)O)cc1 (configuration not stated)	165 nM	4000 nM
COc1ccc(CCCCCCCCOc2ccc(CSc3cccc(NS(=O)(=O)C(F)(F)F)c3)nc2/C=C/C(=O)O)cc1	284 nM	340 nM
CCCCCCCCCCOc1ccc(CC(O)c2cccc(C(=O)O)c2)nc1/C=C/C(=O)O (configuration not stated)	–	3300 nM
CCCCCCCCCCCCOc1ccc(CS(=O)(=O)c2cccc(C(=O)O)c2)nc1/C=C/C(=O)O	148 nM	1060 nM
CCCCCCCCCCOc1ccc(CC(O)c2cccc(C(=O)O)c2)nc1CCC(=O)O (configuration not stated)	429 nM	3400 nM
CCCCCCCCCCCCOc1ccc(C[S+]([O-])c2ccccc2C(=O)O)nc1/C=C/C(=O)O (configuration not stated)	478 nM	1500 nM
COc1ccc(CCCCCCCCOc2ccc(CSc3cccc(NC(=O)C(=O)O)c3)nc2/C=C/C(=O)O)cc1	72 nM	480 nM

Now from value to compound:

Ki [1]	IC50 (U-937)	Compound
11 nM	160 nM	Nc1cccc([S+]([O-])Cc2ccc(OCCCCCCCCc3ccccc3)c(/C=C/C(=O)O)n2)c1 (configuration not stated)
36 nM	60 nM	Nc1cccc(SCc2ccc(OCCCCCCCCc3ccccc3)c(/C=C/C(=O)O)n2)c1
4.7 nM	74 nM	COc1ccc(CCCCCCCCOc2ccc(C[S+]([O-])c3cccc(N)c3)nc2/C=C/C(=O)O)cc1 (configuration not stated)
14 nM	54 nM	Nc1cccc([S+]([O-])Cc2ccc(OCCCCCCCCc3ccc(C(F)(F)F)cc3)c(/C=C/C(=O)O)n2)c1 (configuration not stated)
37 nM	280 nM	COc1ccc(CCCCCCCCOc2ccc(C[S+]([O-])c3ccccc3)nc2/C=C/C(=O)O)cc1 (configuration not stated)
34 nM	54 nM	COc1ccc(CCCCCCCCOc2ccc(CSc3cccc(N)c3)nc2/C=C/C(=O)O)cc1
232 nM	300 nM	COc1ccc(CCCCCCCCOc2ccc(C[S+]([O-])c3cccc(OC)c3)nc2/C=C/C(=O)O)cc1 (configuration not stated)
74 nM	110 nM	COc1ccc(CCCCCCCCOc2ccc(CSc3ccccc3)nc2/C=C/C(=O)O)cc1
147 nM	150 nM	COc1ccc(CCCCCCCCOc2ccc(C[S+]([O-])c3cccc(NS(=O)(=O)c4ccccc4)c3)nc2/C=C/C(=O)O)cc1 (configuration not stated)
245 nM	820 nM	COc1ccc(CCCCCCCCOc2ccc(C[S+]([O-])c3cccc(N(C)C)c3)nc2/C=C/C(=O)O)cc1 (configuration not stated)
151 nM	1100 nM	COc1ccc(CCCCCCCCOc2ccc(C[S+]([O-])c3cccc(C(=O)O)c3)nc2/C=C/C(=O)O)cc1 (configuration not stated)
12 nM	110 nM	Nc1cccc([S+]([O-])Cc2ccc(OCCCCCCCCc3ccc(F)cc3)c(/C=C/C(=O)O)n2)c1 (configuration not stated)
